Results reported in PMC9284491 (Nature Communications, 2022).
“Also recorded” adds a separate entry of the source.

Experiment: Treatment-emergent adverse events (MedDRA, NCI-CTCAE v4.03), safety populations
Type: in vivo, human
Method: Overall safety in Parts A and B was assessed by tabulating TEAEs, coded using the Medical Dictionary for Regulatory Activities (MedDRA) version 22.1, and graded according to NCI-CTCAE v4.03 criteria. TEAEs were classified as related or unrelated to amcenestrant therapy based upon the local investigating physician’s clinical judgment. The safety population included all patients exposed to at least one dose of the study treatment. Results were analyzed using descriptive statistics.

O=C(O)c1ccc2c(c1)CCCC(c1ccc(Cl)cc1Cl)=C2c1ccc(O[C@H]2CCN(CCCF)C2)cc1 [amcenestrant, 6-(2,4-Dichlorophenyl)−5-[4-[(3S)−1-(3-fluoropropyl)pyrrolidin-3-yl]oxyphenyl]−8,9-dihydro-7H-benzo[7]annulene-2-carboxylic acid]
Hypoesthesia, TEAEs, Grade 2 (Part A, 20-600 mg QD (N = 16)): 0 n (%) | Hypoesthesia, TEAEs, Grade ≥3 (Part A, 20-600 mg QD (N = 16)): 0 n (%) | Hypoesthesia, Treatment-related TEAEs, All Grades (Part A, 20-600 mg QD (N = 16)): 0 n (%) | Hypoesthesia, Treatment-related TEAEs, Grade 1 (Part A, 20-600 mg QD (N = 16)): 0 n (%) | Hypoesthesia, Treatment-related TEAEs, Grade 2 (Part A, 20-600 mg QD (N = 16)): 0 n (%) | Hypoesthesia, Treatment-related TEAEs, Grade ≥3 (Part A, 20-600 mg QD (N = 16)): 0 n (%) | Nausea, TEAEs, All grades (Part A, 20-600 mg QD (N = 16)): 6 (37.5) n (%) | Nausea, TEAEs, Grade 1 (Part A, 20-600 mg QD (N = 16)): 3 (18.8) n (%) | Nausea, TEAEs, Grade 2 (Part A, 20-600 mg QD (N = 16)): 3 (18.8) n (%) | Nausea, TEAEs, Grade ≥3 (Part A, 20-600 mg QD (N = 16)): 0 n (%) | Nausea, Treatment-related TEAEs, All Grades (Part A, 20-600 mg QD (N = 16)): 4 (25.0) n (%) | Nausea, Treatment-related TEAEs, Grade 1 (Part A, 20-600 mg QD (N = 16)): 3 (18.8) n (%) | Nausea, Treatment-related TEAEs, Grade 2 (Part A, 20-600 mg QD (N = 16)): 1 (6.3) n (%) | Nausea, Treatment-related TEAEs, Grade ≥3 (Part A, 20-600 mg QD (N = 16)): 0 n (%) | Night sweat, TEAEs, All grades (Part A, 20-600 mg QD (N = 16)): 3 (18.8) n (%) | Night sweat, TEAEs, Grade 1 (Part A, 20-600 mg QD (N = 16)): 3 (18.8) n (%) | Night sweat, TEAEs, Grade 2 (Part A, 20-600 mg QD (N = 16)): 0 n (%) | Night sweat, TEAEs, Grade ≥3 (Part A, 20-600 mg QD (N = 16)): 0 n (%) | Night sweat, Treatment-related TEAEs, All Grades (Part A, 20-600 mg QD (N = 16)): 3 (18.8) n (%) | Night sweat, Treatment-related TEAEs, Grade 1 (Part A, 20-600 mg QD (N = 16)): 3 (18.8) n (%) | Night sweat, Treatment-related TEAEs, Grade 2 (Part A, 20-600 mg QD (N = 16)): 0 n (%) | Night sweat, Treatment-related TEAEs, Grade ≥3 (Part A, 20-600 mg QD (N = 16)): 0 n (%) | Urinary tract infection, TEAEs, All grades (Part A, 20-600 mg QD (N = 16)): 4 (25.0) n (%) | Urinary tract infection, TEAEs, Grade 1 (Part A, 20-600 mg QD (N = 16)): 0 n (%) | Urinary tract infection, TEAEs, Grade 2 (Part A, 20-600 mg QD (N = 16)): 3 (18.8) n (%) | Urinary tract infection, TEAEs, Grade ≥3 (Part A, 20-600 mg QD (N = 16)): 1 (6.3) n (%) | Urinary tract infection, Treatment-related TEAEs, All Grades (Part A, 20-600 mg QD (N = 16)): 0 n (%) | Urinary tract infection, Treatment-related TEAEs, Grade 1 (Part A, 20-600 mg QD (N = 16)): 0 n (%) | Urinary tract infection, Treatment-related TEAEs, Grade 2 (Part A, 20-600 mg QD (N = 16)): 0 n (%) | Urinary tract infection, Treatment-related TEAEs, Grade ≥3 (Part A, 20-600 mg QD (N = 16)): 0 n (%) | cardiac non-treatment-related TEAEs (Part A, Grade 1 palpitations and Grade 2 prolonged QT interval): 2 patients | eye disorder treatment-related TEAE (Part A, Grade 1 photophobia): 1 patient | serious TEAEs (Part A, associated with disease progression, considered unrelated to amcenestrant): three patients | TEAE leading to treatment discontinuation (Part B): one Grade ≥3 TEAE of pneumonia led to treatment discontinuation | eye disorder non-treatment-related TEAEs (Part B): Three eye disorder non-treatment-related TEAEs were reported in two patients | serious TEAEs related to amcenestrant (Part B / overall, by investigator): none were considered related to amcenestrant; also recorded: No serious AEs were considered treatment-related | ALT increased, TEAEs, All grades (Part B, 400 mg QD (N = 49)): 3 (6.1) n (%) | ALT increased, TEAEs, Grade 1 (Part B, 400 mg QD (N = 49)): 0 n (%) | ALT increased, TEAEs, Grade 2 (Part B, 400 mg QD (N = 49)): 0 n (%) | ALT increased, TEAEs, Grade ≥3 (Part B, 400 mg QD (N = 49)): 3 (6.1) n (%) | ALT increased, Treatment-related TEAEs, All Grades (Part B, 400 mg QD (N = 49)): 0 n (%) | ALT increased, Treatment-related TEAEs, Grade 1 (Part B, 400 mg QD (N = 49)): 0 n (%) | ALT increased, Treatment-related TEAEs, Grade 2 (Part B, 400 mg QD (N = 49)): 0 n (%) | ALT increased, Treatment-related TEAEs, Grade ≥3 (Part B, 400 mg QD (N = 49)): 0 n (%) | AST increased, TEAEs, All grades (Part B, 400 mg QD (N = 49)): 3 (6.1) n (%) | AST increased, TEAEs, Grade 1 (Part B, 400 mg QD (N = 49)): 0 n (%) | AST increased, TEAEs, Grade 2 (Part B, 400 mg QD (N = 49)): 0 n (%) | AST increased, TEAEs, Grade ≥3 (Part B, 400 mg QD (N = 49)): 3 (6.1) n (%) | AST increased, Treatment-related TEAEs, All Grades (Part B, 400 mg QD (N = 49)): 0 n (%) | AST increased, Treatment-related TEAEs, Grade 1 (Part B, 400 mg QD (N = 49)): 0 n (%) | AST increased, Treatment-related TEAEs, Grade 2 (Part B, 400 mg QD (N = 49)): 0 n (%) | AST increased, Treatment-related TEAEs, Grade ≥3 (Part B, 400 mg QD (N = 49)): 0 n (%) | Abdominal pain upper, TEAEs, All grades (Part B, 400 mg QD (N = 49)): 6 (12.2) n (%) | Abdominal pain upper, TEAEs, Grade 1 (Part B, 400 mg QD (N = 49)): 2 (4.1) n (%) | Abdominal pain upper, TEAEs, Grade 2 (Part B, 400 mg QD (N = 49)): 4 (8.2) n (%) | Abdominal pain upper, TEAEs, Grade ≥3 (Part B, 400 mg QD (N = 49)): 0 n (%) | Abdominal pain upper, Treatment-related TEAEs, All Grades (Part B, 400 mg QD (N = 49)): 1 (2.0) n (%) | Abdominal pain upper, Treatment-related TEAEs, Grade 1 (Part B, 400 mg QD (N = 49)): 1 (2.0) n (%) | Abdominal pain upper, Treatment-related TEAEs, Grade 2 (Part B, 400 mg QD (N = 49)): 0 n (%) | Abdominal pain upper, Treatment-related TEAEs, Grade ≥3 (Part B, 400 mg QD (N = 49)): 0 n (%) | Abdominal pain, TEAEs, All grades (Part B, 400 mg QD (N = 49)): 11 (22.4) n (%) | Abdominal pain, TEAEs, Grade 1 (Part B, 400 mg QD (N = 49)): 8 (16.3) n (%) | Abdominal pain, TEAEs, Grade 2 (Part B, 400 mg QD (N = 49)): 3 (6.1) n (%) | Abdominal pain, TEAEs, Grade ≥3 (Part B, 400 mg QD (N = 49)): 0 n (%) | Abdominal pain, Treatment-related TEAEs, All Grades (Part B, 400 mg QD (N = 49)): 2 (4.1) n (%) | Abdominal pain, Treatment-related TEAEs, Grade 1 (Part B, 400 mg QD (N = 49)): 2 (4.1) n (%) | Abdominal pain, Treatment-related TEAEs, Grade 2 (Part B, 400 mg QD (N = 49)): 0 n (%) | Abdominal pain, Treatment-related TEAEs, Grade ≥3 (Part B, 400 mg QD (N = 49)): 0 n (%) | Any TEAE, TEAEs, All grades (Part B, 400 mg QD (N = 49)): 49 (100) n (%) | Any TEAE, TEAEs, Grade 1 (Part B, 400 mg QD (N = 49)): 11 (22.4) n (%) | Any TEAE, TEAEs, Grade 2 (Part B, 400 mg QD (N = 49)): 22 (44.9) n (%) | Any TEAE, TEAEs, Grade ≥3 (Part B, 400 mg QD (N = 49)): 16 (32.7) n (%) | Any TEAE, Treatment-related TEAEs, All Grades (Part B, 400 mg QD (N = 49)): 26 (53.1) n (%) | Any TEAE, Treatment-related TEAEs, Grade 1 (Part B, 400 mg QD (N = 49)): 21 (42.9) n (%) | Any TEAE, Treatment-related TEAEs, Grade 2 (Part B, 400 mg QD (N = 49)): 5 (10.2) n (%) | Any TEAE, Treatment-related TEAEs, Grade ≥3 (Part B, 400 mg QD (N = 49)): 0 n (%) | Arthralgia, TEAEs, All grades (Part B, 400 mg QD (N = 49)): 10 (20.4) n (%) | Arthralgia, TEAEs, Grade 1 (Part B, 400 mg QD (N = 49)): 7 (14.3) n (%) | Arthralgia, TEAEs, Grade 2 (Part B, 400 mg QD (N = 49)): 3 (6.1) n (%) | Arthralgia, TEAEs, Grade ≥3 (Part B, 400 mg QD (N = 49)): 0 n (%) | Arthralgia, Treatment-related TEAEs, All Grades (Part B, 400 mg QD (N = 49)): 4 (8.2) n (%) | Arthralgia, Treatment-related TEAEs, Grade 1 (Part B, 400 mg QD (N = 49)): 3 (6.1) n (%) | Arthralgia, Treatment-related TEAEs, Grade 2 (Part B, 400 mg QD (N = 49)): 1 (2.0) n (%) | Arthralgia, Treatment-related TEAEs, Grade ≥3 (Part B, 400 mg QD (N = 49)): 0 n (%) | Asthenia, TEAEs, All grades (Part B, 400 mg QD (N = 49)): 10 (20.4) n (%) | Asthenia, TEAEs, Grade 1 (Part B, 400 mg QD (N = 49)): 7 (14.3) n (%) | Asthenia, TEAEs, Grade 2 (Part B, 400 mg QD (N = 49)): 3 (6.1) n (%) | Asthenia, TEAEs, Grade ≥3 (Part B, 400 mg QD (N = 49)): 0 n (%) | Asthenia, Treatment-related TEAEs, All Grades (Part B, 400 mg QD (N = 49)): 2 (4.1) n (%) | Asthenia, Treatment-related TEAEs, Grade 1 (Part B, 400 mg QD (N = 49)): 2 (4.1) n (%) | Asthenia, Treatment-related TEAEs, Grade 2 (Part B, 400 mg QD (N = 49)): 0 n (%) | Asthenia, Treatment-related TEAEs, Grade ≥3 (Part B, 400 mg QD (N = 49)): 0 n (%)
